Measurements reported in ChEMBL document CHEMBL3758102, “Serrulatane Diterpenoid from Eremophila neglecta Exhibits Bacterial Biofilm Dispersion and Inhibits Release of Pro-inflammatory Cytokines from Activated Macrophages” (J Nat Prod, 2015).
≈ marks a conversion by molar mass, not a printed value. Calls of active or inactive are those of the source. No cut-off for these calls is given here.

Tests used:
[1] = Cytotoxicity against C57Bl/6 mouse BMDM cells assessed as cell viability at <=80 uM after 72 hrs by MTS assay; format: cell-based, C57BI/6
[2] = system: Staphylococcus epidermidis; test: Antibiofilm activity against Staphylococcus epidermidis ATCC 35984 assessed as 12 hrs pre-established supernatant viable cell count at 0.08 umol/mesh after 20 hrs by […] using compound impregnated in polypropylene mesh (Rvb =7.7 x 10^8 CFU/ml); format: functional
[3] = system: Staphylococcus epidermidis; test: Antibiofilm activity against Staphylococcus epidermidis ATCC 35984 assessed as reduction in 24 hrs pre-established biofilm viable cell count after 20 hrs (reference value: 1.4 x 10^10 +/- 2.6 x 10^9 CFU/ml); format: functional
[4] = Induction of apoptosis in C57Bl/6 mouse BMDM cells assessed as viable cells at 80 uM by annexin V-FITC/DAPI staining-based flow cytometric analysis (reference value: 46.7%); format: functional; settings: C57BI/6, BMDM, read-out: Activity
[5] = system: Staphylococcus epidermidis; test: Antibiofilm activity against Staphylococcus epidermidis ATCC 35984 assessed as inhibition of 12 hrs pre-established biofilm formation at 0.064 umol/well after 20 hrs by visible spectrometric analysis; format: functional, organism-based
[6] = system: Staphylococcus epidermidis; test: Antibiofilm activity against Staphylococcus epidermidis ATCC 35984 assessed as inhibition of 12 hrs pre-established biofilm formation at 0.16 umol after 20 hrs by safranin staining-based UV-visible spectroscopic analysis using compound impregnated in polypropylene mesh; format: functional, organism-based
[7] = system: Staphylococcus epidermidis; test: Antibiofilm activity against Staphylococcus epidermidis ATCC 35984 assessed as reduction in 12 hrs pre-established biofilm viable cell count after 20 hrs (reference value: 1.2 x 10^10 CFU/ml); format: functional
BMDM [8] = test: Inhibition of IL10 production in C57Bl/6 mouse BMDM cells by ELISA; format: functional, cell-based; settings: C57BI/6
[9] = Induction of apoptosis in C57Bl/6 mouse BMDM cells assessed as dead cells at 20 uM by annexin V-FITC/DAPI staining-based flow cytometric analysis (reference value: 24.4%); format: functional, C57BI/6
[10] = Induction of apoptosis in C57Bl/6 mouse BMDM cells assessed as dead cells at 2.5 uM by annexin V-FITC/DAPI staining-based flow cytometric analysis (reference value: 24.4%); format: functional, C57BI/6
Escherichia coli = test: Antibacterial activity against Escherichia coli ATCC 25922 at 658 uM incubated overnight by broth microdilution method; format: functional, organism-based
Staphylococcus aureus [11] = test: Antibacterial activity against Staphylococcus aureus ATCC 29213 incubated overnight by broth microdilution method; format: functional
[12] = Induction of apoptosis in C57Bl/6 mouse BMDM cells assessed as viable cells at 2.5 uM by annexin V-FITC/DAPI staining-based flow cytometric analysis (reference value: 46.7%); format: functional; settings: C57BI/6, BMDM, read-out: Activity
[13] = system: Staphylococcus epidermidis; test: Antibiofilm activity against Staphylococcus epidermidis ATCC 35984 assessed as inhibition of 3 to 6 hrs pre-established biofilm formation at 0.064 umol/well after 20 hrs by safranin staining-based method; format: functional, organism-based
[14] = system: Staphylococcus epidermidis; test: Antibiofilm activity against Staphylococcus epidermidis ATCC 35984 assessed as 12 hrs pre-established supernatant viable cell count at 0.01 umol/mesh after 20 hrs by […] using compound impregnated in polypropylene mesh (Rvb =7.7 x 10^8 CFU/ml); format: functional
[15] = system: Staphylococcus epidermidis; test: Antibiofilm activity against Staphylococcus epidermidis ATCC 35984 assessed as inhibition of 24 hrs pre-established biofilm formation at 0.064 umol/well after 20 hrs by visible spectrometric analysis; format: functional, organism-based
[16] = system: Staphylococcus epidermidis; test: Antibiofilm activity against Staphylococcus epidermidis ATCC 35984 assessed as inhibition of 12 hrs pre-established biofilm formation after 20 hrs by safranin staining-based UV-visible spectroscopic analysis using compound impregnated in polypropylene mesh; format: functional, organism-based
Staphylococcus aureus [17] = test: Antibacterial activity against Staphylococcus aureus ATCC 25923 incubated overnight by broth microdilution method; format: functional
BMDM [18] = test: Increase in IL-1beta production in C57Bl/6 mouse BMDM cells at 20 uM pretreated for 1 hr prior to ATP-stimulation by ELISA; format: functional, cell-based; settings: C57BI/6
[19] = Induction of apoptosis in C57Bl/6 mouse BMDM cells assessed as dead cells at 40 uM by annexin V-FITC/DAPI staining-based flow cytometric analysis (reference value: 24.4%); format: functional, C57BI/6
[20] = Induction of apoptosis in C57Bl/6 mouse BMDM cells assessed as early apoptotic cells at 80 uM by annexin V-FITC/DAPI staining-based flow cytometric analysis (reference value: 0.49%); format: functional, C57BI/6
[21] = system: Staphylococcus epidermidis; test: Antibiofilm activity against Staphylococcus epidermidis ATCC 35984 assessed as 12 hrs pre-established biofilm viable cell count at 0.01 umol/mesh after 20 hrs by […] using compound impregnated in polypropylene mesh (reference value: 8.6 x 10^9 CFU/ml); format: functional
[22] = Induction of apoptosis in C57Bl/6 mouse BMDM cells assessed as viable cells at 40 uM by annexin V-FITC/DAPI staining-based flow cytometric analysis (reference value: 46.7%); format: functional; settings: C57BI/6, BMDM, read-out: Activity
[23] = system: Staphylococcus epidermidis; test: Antibiofilm activity against Staphylococcus epidermidis ATCC 35984 assessed as 12 hrs pre-established biofilm viable cell count at 0.16 umol/mesh after 20 hrs by […] using compound impregnated in polypropylene mesh (reference value: 8.6 x 10^9 CFU/ml); format: functional
[24] = system: Staphylococcus epidermidis; test: Antibiofilm activity against Staphylococcus epidermidis ATCC 35984 assessed as 12 hrs pre-established biofilm viable cell count at 0.04 umol/mesh after 20 hrs by […] using compound impregnated in polypropylene mesh (reference value: 8.6 x 10^9 CFU/ml); format: functional
[25] = Induction of apoptosis in C57Bl/6 mouse BMDM cells assessed as late apoptotic cells at 2.5 uM by annexin V-FITC/DAPI staining-based flow cytometric analysis (reference value: 28.4%); format: functional, C57BI/6
[26] = Induction of apoptosis in C57Bl/6 mouse BMDM cells assessed as viable cells at 160 uM by annexin V-FITC/DAPI staining-based flow cytometric analysis (reference value: 46.7%); format: functional; settings: C57BI/6, BMDM, read-out: Activity
BMDM [27] = test: Inhibition of IL-6 production in C57Bl/6 mouse BMDM cells at 5 uM pretreated prior to LPS-stimulation measured on day 7 by ELISA; format: functional, cell-based; settings: C57BI/6
BMDM [28] = test: Increase in IL-1beta production in C57Bl/6 mouse BMDM cells at 2.5 to 80 uM pretreated for 1 hr prior to ATP-stimulation by ELISA; format: functional, cell-based; settings: C57BI/6
[29] = system: Staphylococcus epidermidis; test: Antibiofilm activity against Staphylococcus epidermidis ATCC 35984 assessed as 12 hrs pre-established supernatant viable cell count at 0.04 umol/mesh after 20 hrs by […] using compound impregnated in polypropylene mesh (Rvb =7.7 x 10^8 CFU/ml); format: functional
[30] = system: Staphylococcus epidermidis; test: Antibiofilm activity against Staphylococcus epidermidis ATCC 35984 assessed as 24 hrs pre-established biofilm viable cell count after 20 hrs (reference value: 1.4 x 10^10 +/- 2.6 x 10^9 CFU/ml); format: functional
[31] = system: Staphylococcus epidermidis; test: Antibiofilm activity against Staphylococcus epidermidis ATCC 35984 assessed as inhibition of 24 hrs pre-established biofilm formation at 0.064 umol/well after 20 hrs by safranin staining-based method; format: functional, organism-based

For CC(C)=CCC[C@H](C)[C@@H]1CC[C@@H](C)c2c(O)cc(C(=O)O)cc21, the Activity [1] was “Non-toxic”, the Activity [2] was 4.4 ×10⁴ CFU/ml and the Activity [3] was 2 log10CFU/ml. For the same compound, the viability at 80 µM [4] was 31%, the inhibition [5] was “Active” and the inhibition [6] was “Active”. For the same compound, the Activity [7] was 7 log10CFU/ml, the inhibition (BMDM [8]) was “inactive” and the Activity [9] was 6.76%. For the same compound, the Activity [10] was 13.3%, the Activity (Escherichia coli) was “inactive” and the MBC (Staphylococcus aureus [11]) was 82 µM (≈ 25.9 µg/mL). The MIC (Staphylococcus aureus [11]) was 82 µM (≈ 25.9 µg/mL), the viability at 2.5 µM [12] was 51.4% and the inhibition [13] was “Active”. The Activity [14] was 3.4 ×10⁸ CFU/ml, the inhibition [15] was “Active” and the inhibition [16] was “Dose-dependent effect”. The MBC (Staphylococcus aureus [17]) was 82 µM (≈ 25.9 µg/mL), the MIC (Staphylococcus aureus [17]) was 41 µM (≈ 13 µg/mL) and the Activity (BMDM [18]) was “inactive”. The Activity [19] was 21.8%, the Activity [20] was 0.81% and the Activity [21] was 1.6 ×10⁹ CFU/ml. It also gave a viability at 40 µM [22] of 49.5%, an Activity [23] of 3.9 ×10⁴ CFU/ml and an Activity [24] of 6.7 ×10⁸ CFU/ml. The Activity [25] was 32.7%, the viability at 160 µM [26] was 53% and the inhibition (BMDM [27]) was “Active”. For the same compound, the Activity (BMDM [28]) was “inactive”, the Activity [29] was 1.5 ×10⁷ CFU/ml and the Activity [30] was 4.2 ×10⁸ CFU/ml. The Activity [31] was “inactive”.
